Columns and labels:
Assay in all cases: Cancer cell growth inhibition, SRB assay
HCT-15 = type: cell-based, human; conditions: Homo sapiens, 144 h; HCT-15 (Colon); SRB at Day 6; triplicate
SW480 = type: cell-based, human; conditions: Homo sapiens, 144 h; SW480 (Colon); SRB at Day 6; triplicate
H358 = type: cell-based, human; conditions: Homo sapiens, NCI-H358, 144 h; H358 (Lung); SRB at Day 6; triplicate
Protocol: (§1) Human cancer cells (MCF-7, H358, H460, HCT116 p53^+/+, HCT116 p53^−/−, A172, PC-3, DU-145 and SW626) were maintained in DMEM medium containing 10% Fetal Bovine Serum (FBS) (Invitrogen, Burlington, ON, Canada) and normal cells HMEC, 184A1, NHBE and PrEC were cultured in MEGM, MEGM plus transferring and cholera toxin, BEGM and PrEGM supplemented with various growth factors (Cambrex, Charles city, Iowa, USA), respectively.
(§2) Compounds of Examples S1 to S30, and 4-(carboxymethyl)-4-(6-(3-hexyloxy)phenoxy)hexanoamido)-1,1-dimethylpiperidinium 2,2,2-trifluoroactate (“Compound A”) were tested in this example. Each of the tested compounds was dissolved in DMSO and further diluted in cell culture medium for the experiments performed. Cells were seeded into 96-well plates with 1,500-5,000 cells/well according to cell growth rate. After 24 h, DMEM medium containing 10% FBS were changed to DMEM containing 3% FBS for cancer cells. The compound was added into the cell culture at the indicated concentrations, and the final concentration of DMSO was adjusted to a final concentration of 0.1%. Cell viability was assessed by Sulforhodamine B (SRB) assay at Day 6.
(§3) Sulforhodamine B (SRB) (Sigma, Oakville, ON, Canada) is a water-soluble dye that binds to the basic amino acids of the cellular proteins. Thus, colorimetric measurement of the bound dye provides an estimate of the total protein mass that is related to the cell number. The cells were fixed in situ by gently aspirating off the culture media and adding 50 ul of cold 10% Tri-chloroacetic Acid (TCA) per well and incubated at 4° C. for 30-60 min. The plates were washed five times with water and allowed to air dry for 5 min. 50 ul of 0.4% (w/v) SRB dissolved in 1% (v/v) acetic acid were added into each well, plates were then incubated at RT for 30 min for staining, washed four times with 1% acetic acid to remove any unbound dye and then allowed to air dry for 5 min. Stain was solubilized with 100 ul of 10 mM Tris pH 10.5 per well. Absorbance was read at 570 nm on a spectrophotometer. GI50 (compound concentration required for 50% of growth inhibition) was calculated using GraphPad Prism 4.0 software (GraphPad Software, Inc., San Diego, Calif., USA). Growth inhibition (%) was determined as percentage of cells remaining compared to the DMSO-treated cells as control.

A549 = type: cell-based, human; conditions: Homo sapiens, 144 h; A549 (Lung); SRB at Day 6; triplicate
Hs578T = type: cell-based; conditions: Homo sapiens, Hs-578T, 144 h; Hs578T (Breast); SRB at Day 6; triplicate
COLO-205 = type: cell-based, human; conditions: Homo sapiens, 144 h; COLO-205 (Colon); SRB at Day 6; triplicate
PC-3 = type: cell-based, human; conditions: Homo sapiens, 144 h; PC-3 (Prostate); SRB at Day 6; triplicate
Protocol: as §1, §2, §3

A172 = type: cell-based, human; conditions: Homo sapiens, A 172, 144 h; A172 (Brain); SRB at Day 6; triplicate
Protocol: as §1, §2, §3

H460 = type: cell-based, human; conditions: Homo sapiens, NCI-H460, 144 h; H460 (Lung); SRB at Day 6; triplicate
Protocol: as §1, §2, §3

SW620 = type: cell-based, human; conditions: Homo sapiens, SW-620, 144 h; SW620 (Colon); SRB at Day 6; triplicate
MCF-7 = type: cell-based, human; conditions: Homo sapiens, MCF7, 144 h; MCF-7 (Breast); SRB at Day 6; triplicate
Protocol: as §1, §2, §3

SW626 = type: cell-based, human; conditions: Homo sapiens, 144 h; SW626 (Ovarian); SRB at Day 6; triplicate
Protocol: as §1, §2, §3

Caov-3 = type: cell-based; conditions: Homo sapiens, 144 h; Caov-3 (Ovarian); SRB at Day 6; triplicate
MDA-231 = type: cell-based, human; conditions: Homo sapiens, MDA-MB-231, 144 h; MDA-231 (Breast); SRB at Day 6; triplicate

SMILES | GI50 (HCT-15) [µM] | GI50 (SW480) [µM] | GI50 (H358) [µM] | GI50 (A549) [µM] | GI50 (Hs578T) [µM] | GI50 (COLO-205) [µM] | GI50 (PC-3) [µM] | GI50 (A172) [µM] | GI50 (H460) [µM] | GI50 (SW620) [µM] | GI50 (MCF-7) [µM] | GI50 (SW626) [µM] | GI50 (Caov-3) [µM] | GI50 (MDA-231) [µM]
CCCCCCCCc1ccc(NC(=O)NC2(CC(=O)O)CC[N+](C)(C)CC2)cc1 [Example S2, 4-(Carboxymethyl)-1,1-dimethyl-4-(3-(4-octylphenyl)ureido)piperidinium 2,2,2-trifluoroacetate] | 3 | 0.7 | 3.1 | 99 | 50 | 1.3 | 8.2 | 1.8 | 1.8 | 2 | 10 | 2.5 | – | –
CCCCCCCCc1ccc(NC(=O)NC2(CC(=O)O)C[N+](C)(C)C2)cc1 [Example S24, 3-(Carboxymethyl)-1,1-dimethyl-3-(3-(4-octylphenyl)ureido)azetidinium 2,2,2-trifluoroacetate] | 38 | 29 | 19 | 36 | 46 | 28 | 21 | 41 | – | 44 | 27 | 63 | 45 | –
CCCCCCCCc1ccc(NS(=O)(=O)NC2(CC(=O)O)CCCN(C)C2)cc1 (stereo not drawn) [Example S15, 3-(carboxymethyl)-1-methyl-3-(N-(4-octylphenyl)sulfamoylamino)-piperidinium 2,2,2-trifluoroacetate] | 32 | 36 | 12 | 7.5 | 25 | 21 | 2.8 | 2.7 | – | 27 | 15 | 33 | 4 | –
CCCCCCCCc1ccc(NS(=O)(=O)NC2(CC(=O)O)CCN(C)CC2)cc1 [Example S7, 4-(carboxymethyl)-1-methyl-4-(N-(4-octylphenyl)sulfamoylamino)-piperidinium 2,2,2-trifluoroacetate] | 80 | 68 | 20 | 52 | > 50 | 74 | 6 | 15 | – | > 50 | 27 | > 50 | 22 | –
CCCCCc1ccc(S(=O)(=O)NC2(CC(=O)O)C[N+](C)(C)C2)cc1 [Example S29, 3-(carboxymethyl)-1,1-dimethyl-3-(4-pentylphenylsulfonamido)-azetidinium 2,2,2-trifluoroacetate] | > 50 | > 50 | 86 | > 50 | > 50 | 28 | > 50 | > 50 | – | > 77 | 44 | > 50 | – | > 50
CCCCCCCCc1ccc(NC(=O)NC2(CC(=O)O)CNC2)cc1 [Example S23, 3-(carboxymethyl)-3-(3-(4-octylphenyl)ureido)azetidinium 2,2,2-trifluoroacetate] | 28 | 28 | 14 | > 50 | 45 | 35 | 24 | 7.2 | – | 43 | 26 | 21 | 17 | –
CCCCCCCCc1ccc(NC(=O)NC2(CC(=O)O)CC[N+](C)(C)C2)cc1 (stereo not drawn) [Example S18, 3-(carboxymethyl)-1,1-dimethyl-3-(3-(4-octylphenyl)ureido)-pyrrolidinium 2,2,2-trifluoroacetate] | 5.4 | 1.2 | 2.7 | 38 | 26 | 1.9 | 6.6 | 1.9 | 2.2 | 3.1 | 5.9 | 3.9 | – | –

Reference: patent US8680282B2, “Cyclic inhibitors of carnitine palmitoyltransferase and treating cancer” (University Health Network, priority 2007, dated 2014)
